The subject of one test is Hepatocyte. The test can be described thus: Cytotoxicity against rat hepatocytes. The format is functional, cell-based.
The subject of test [1] is Plasmodium falciparum. The experiment in a line: Antimalarial activity against chloroquine-sensitive Plasmodium falciparum D6. It is filed as functional, organism-based.
Test [2] has as its system Plasmodium falciparum. The experiment in a line: Antimalarial activity against chloroquine-resistant Plasmodium falciparum W2. The format is functional, organism-based.

Structures are written as SMILES.

A word on the IC50: it is the midpoint of a concentration-inhibition curve. A low value points to greater potency. As to `Cc1ccc2c(=O)n(CC(=O)C[C@H]3NCCC[C@@H]3O)cnc2c1`, the IC50 with Hepatocyte was determined as 117 nM; with Plasmodium falciparum [1], 2 nM; in the test with Plasmodium falciparum [2], 2.2 nM.

Turning to `CC(C)(C)c1cccc2ncn(CC(=O)C[C@H]3NCCC[C@@H]3O)c(=O)c12`, the IC50 in the test on Hepatocyte turned out to be 70000 nM; with Plasmodium falciparum [1] it was 132 nM; in the test on Plasmodium falciparum [2], 160 nM.

For the compound `O=C(C[C@H]1NCCC[C@@H]1O)Cn1cnc2ccc(C(F)(F)F)cc2c1=O`, the values for the IC50 in the test on Hepatocyte, with Plasmodium falciparum [1] and in the test on Plasmodium falciparum [2] were 15000 nM, 14 nM and 16 nM, respectively.

On to `O=C(C[C@H]1NCCC[C@@H]1O)Cn1cnc2ccncc2c1=O`, for which the IC50 with Hepatocyte came to 17000 nM; in the test with Plasmodium falciparum [1] it was 1.5 nM; with Plasmodium falciparum [2] it was 1.8 nM.

On to `O=C(C[C@H]1NCCC[C@@H]1O)Cn1cnc2cccc(C(F)(F)F)c2c1=O`, for which the IC50 in the test on Hepatocyte was determined as 19000 nM; in the test with Plasmodium falciparum [1], 0.43 nM; in the test on Plasmodium falciparum [2] it was 0.41 nM.

`COc1cccc2c(=O)n(CC(=O)C[C@H]3NCCC[C@@H]3O)cnc12`: the IC50 in the test on Hepatocyte is 16 nM; with Plasmodium falciparum [1] it was 1.2 nM; in the test with Plasmodium falciparum [2], 1.3 nM.

Regarding `COc1ccc2c(=O)n(CC(=O)C[C@H]3NCCC[C@@H]3O)cnc2c1`, the IC50 with Hepatocyte worked out at 15 nM; in the test with Plasmodium falciparum [1] it was 1.4 nM; with Plasmodium falciparum [2] it was 1.3 nM.

Take `O=C(C[C@H]1NCCC[C@@H]1O)Cn1cnc2cccc(F)c2c1=O`: the IC50 with Hepatocyte was 19000 nM; with Plasmodium falciparum [1] it was 1.3 nM; in the test with Plasmodium falciparum [2], 1.3 nM.

Take `Cc1cccc2c(=O)n(CC(=O)C[C@H]3NCCC[C@@H]3O)cnc12`: the figures for the IC50 with Hepatocyte, in the test with Plasmodium falciparum [1] and with Plasmodium falciparum [2] were 140 nM, 1.7 nM and 1.9 nM, respectively.

On to `O=C(C[C@H]1NCCC[C@@H]1O)Cn1cnc2ccc(F)c(F)c2c1=O`, for which the IC50 was determined as 17000 nM in the test on Hepatocyte, 0.33 nM with Plasmodium falciparum [1] and 0.39 nM with Plasmodium falciparum [2].

As to `O=C(C[C@H]1NCCC[C@@H]1O)Cn1cnc2cnccc2c1=O`, the IC50 was 19000 nM in the test on Hepatocyte, 63 nM in the test on Plasmodium falciparum [1] and 73 nM with Plasmodium falciparum [2].

Turning to `O=C(C[C@H]1NCCC[C@@H]1O)Cn1cnc2ncccc2c1=O`, the half-maximal inhibitory concentration (IC50) with Hepatocyte stood at 22000 nM; in the test with Plasmodium falciparum [1], 70 nM; in the test with Plasmodium falciparum [2] it was 109 nM.

As for `CC(C)(C)c1ccc2ncn(CC(=O)C[C@H]3NCCC[C@@H]3O)c(=O)c2c1`, the IC50 with Plasmodium falciparum [1] amounted to 165 nM; in the test with Plasmodium falciparum [2], 188 nM.

Turning to `O=C(C[C@H]1NCCC[C@@H]1O)Cn1cnc2c(F)cccc2c1=O`, the IC50 in the test on Hepatocyte is 16000 nM; with Plasmodium falciparum [1], 103 nM; in the test with Plasmodium falciparum [2], 100 nM.

`O=C(C[C@H]1NCCC[C@@H]1O)Cn1cnc2ccc(F)cc2c1=O`: the values for the IC50 in the test with Hepatocyte, in the test on Plasmodium falciparum [1] and with Plasmodium falciparum [2] were 13000 nM, 4.7 nM and 5 nM, respectively.

Turning to `O=C(C[C@H]1NCCC[C@@H]1O)Cn1cnc2cccnc2c1=O`, the IC50 with Hepatocyte amounted to 18000 nM; with Plasmodium falciparum [1] it was 1.2 nM; in the test with Plasmodium falciparum [2] it was 1.3 nM.

`CCN(CC)CCCC(C)Nc1ccnc2cc(Cl)ccc12` (stereo unspecified) [CHLOROQUINE] displayed an IC50 in the test on Hepatocyte of 19000 nM.

As for `O=C(C[C@@H]1NCCC[C@H]1O)Cn1cnc2ccccc2c1=O` [FEBRIFUGINE], the IC50 was 169 nM in the test with Hepatocyte, 1.6 nM in the test on Plasmodium falciparum [1] and 1.9 nM in the test on Plasmodium falciparum [2].
